From US8957064B2, “Fused pyrimidines” (Bayer Intellectual Property GmbH, priority 2009, dated 2015)

Assays:
[1] = biological target: His-tagged human recombinant kinase full-length Akt2 activated by PDK1 (Homo sapiens (Human), UniProt P31751); test: Akt2 kinase assay (Akt2 TR-FRET assay, Biological Assay 2.0); type: biochemical; conditions: 10 μM ATP, 1 μM biotinylated peptide substrate, 60 min at 22° C.
From the text: Biological Assay 2.0: Akt2 Kinase Assay
Akt2 inhibitory activity of compounds of the present invention was quantified employing the Akt2 TR-FRET assay as described in the following paragraphs.
(§1) His-tagged human recombinant kinase full-length Akt2 expressed in insect cells and activated by PDK1 was purchased form Invitrogen (part number PV 3975). As substrate for the kinase reaction the biotinylated peptide biotin-Ahx-KKLNRTLSFAEPG (C-terminus in amide form) was used which can be purchased e.g. from the company Biosynthan GmbH (Berlin-Buch, Germany).
(§2) For the assay 50 nl of a 100 fold concentrated solution of the test compound in DMSO was pipetted into a black low volume 384 well microtiter plate (Greiner Bio-One, Frickenhausen, Germany), 2 μl of a solution of Akt2 in assay buffer [50 mM TRIS/HCl pH 7.5, 5 mM MgCl2, 1 mM dithiothreitol, 0.02% (v/v) Triton X-100 (Sigma)] were added and the mixture was incubated for 15 min at 22° C. to allow prebinding of the test compounds to the enzyme before the start of the kinase reaction. Then the kinase reaction was started by the addition of 3 μl of a solution of adenosine-tri-phosphate (ATP, 16.7 μM=>final conc. in the 5 μl assay volume is 10 μM) and substrate (1.67 μM=>final conc. in the 5 μl assay volume is 1 μM) in assay buffer and the resulting mixture was incubated for a reaction time of 60 min at 22° C. The concentration of Akt2 in the assay was adjusted depending of the activity of the enzyme lot and was chosen appropriate to have the assay in the linear range, typical enzyme concentrations were in the range of about 0.2 ng/μl (final conc. in the 5 μl assay volume).
(§3) The reaction was stopped by the addition of 5 μl of a solution of HTRF detection reagents (200 nM streptavidine-XL665 [Cisbio] and 1.5 nM anti-phosho-Serine antibody [Millipore, cat. #35-001] and 0.75 nM LANCE Eu-W 1024 labeled anti-mouse IgG antibody [Perkin Elmer]) in an aqueous EDTA-solution (100 mM EDTA, 0.1% (w/v) bovine serum albumin in 50 mM HEPES/NaOH pH 7.5).
(§4) The resulting mixture was incubated 1 h at 22° C. to allow the binding of the biotinylated phosphorylated peptide to the streptavidine-XL665 and the antibodies. Subsequently the amount of phosphorylated substrate was evaluated by measurement of the resonance energy transfer from the anti-mouse-IgG-Eu-Chelate to the streptavidine-XL665. Therefore, the fluorescence emissions at 620 nm and 665 nm after excitation at 350 nm was measured in a TR-FRET reader, e.g. a Rubystar (BMG Labtechnologies, Offenburg, Germany) or a Viewlux (Perkin-Elmer). The ratio of the emissions at 665 nm and at […] was taken as the measure for the amount of phosphorylated substrate. The data were normalised (enzyme reaction without inhibitor=0% inhibition, all other assay components but no enzyme=100% inhibition).

[2] = biological target: His-tagged human recombinant kinase full-length Akt1 (Homo sapiens (Human), UniProt P31749); test: Akt1 kinase assay (Akt1 TR-FRET assay, Biological Assay 1.0); type: biochemical; conditions: 10 μM ATP, 1 μM biotinylated peptide substrate, 60 min at 22° C.
From the text: Biological Assay 1.0: Akt1 Kinase Assay
as §1, with “Akt1 inhibitory activity of compounds of the present invention may be quantified employing the Akt1 TR-FRET assay as described in the following paragraphs. His-tagged” for “His-tagged”, “Akt1” for “Akt2”, “cells” for “cells and activated by PDK1”, “3599).” for “3975).”
as §2, with “Akt1” for “Akt2”, “0.05” for “0.2”
as §3
as §4, with “HTRF” for “TR-FRET”

His-tagged human recombinant kinase full-length Akt2 activated by PDK1, sequence (P31751 whole entry): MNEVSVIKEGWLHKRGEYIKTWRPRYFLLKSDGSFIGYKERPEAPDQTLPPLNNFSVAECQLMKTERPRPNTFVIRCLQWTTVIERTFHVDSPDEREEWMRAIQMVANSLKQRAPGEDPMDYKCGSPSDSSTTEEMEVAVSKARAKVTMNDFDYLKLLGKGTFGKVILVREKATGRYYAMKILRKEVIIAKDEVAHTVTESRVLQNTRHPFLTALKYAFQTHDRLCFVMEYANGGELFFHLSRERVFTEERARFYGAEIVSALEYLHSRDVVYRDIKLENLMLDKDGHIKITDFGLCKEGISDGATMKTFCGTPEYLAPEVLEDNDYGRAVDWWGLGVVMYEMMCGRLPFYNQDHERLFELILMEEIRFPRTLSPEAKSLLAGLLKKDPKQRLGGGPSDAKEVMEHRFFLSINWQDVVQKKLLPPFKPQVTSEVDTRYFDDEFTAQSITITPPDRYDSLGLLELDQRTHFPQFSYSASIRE
His-tagged human recombinant kinase full-length Akt1, sequence (P31749 whole entry): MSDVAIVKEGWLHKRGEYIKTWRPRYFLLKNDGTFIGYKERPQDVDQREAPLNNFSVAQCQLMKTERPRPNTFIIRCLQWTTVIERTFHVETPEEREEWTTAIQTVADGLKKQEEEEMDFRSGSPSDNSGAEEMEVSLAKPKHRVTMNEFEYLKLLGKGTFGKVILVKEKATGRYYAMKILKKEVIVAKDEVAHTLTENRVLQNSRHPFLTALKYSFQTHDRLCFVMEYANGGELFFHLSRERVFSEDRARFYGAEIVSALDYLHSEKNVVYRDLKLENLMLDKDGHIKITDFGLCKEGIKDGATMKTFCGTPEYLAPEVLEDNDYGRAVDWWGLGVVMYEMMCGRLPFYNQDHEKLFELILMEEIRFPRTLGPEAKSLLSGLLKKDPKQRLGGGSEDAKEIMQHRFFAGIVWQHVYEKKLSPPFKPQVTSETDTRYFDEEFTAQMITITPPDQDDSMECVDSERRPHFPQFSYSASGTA

| Structure (SMILES) | IC50 [1] | IC50 [2] |
| --- | --- | --- |
| Cc1cccc(-c2nc(C3CN(Cc4ccc(-c5nc6nc(C7CC7)nn6cc5-c5ccccc5)cc4)C3)n[nH]2)n1 [Example 41.0, 2-cyclopropyl-5-(4-{3-[5-(6-methylpyridine-2-yl)-1H-[1,2,4]triazole-3-yl]-azetidine-1-ylmethyl}-phenyl)-6-phenyl-[1,2,4]triazolo[1,5-a]pyrimidine] | 10 nM | 10 nM |
| CCc1cnn2cc(-c3ccccc3)c(-c3ccc(CN4CC(c5n[nH]c(-c6cccc(C)n6)n5)C4)cc3)nc12 [Example 42.0, 3-ethyl-5-(4-{3-[5-(6-methyl-pyridin-2-yl)-1H-[1,2,4]triazol-3-yl]-azetidin-1-ylmethyl}-phenyl)-6-phenyl-pyrazolo[1,5-a]pyrimidine] | 19 nM | 5 nM |
| CC(C)Nc1nc2nc(-c3ccc(CN4CC(c5n[nH]c(-c6ccccn6)n5)C4)cc3)c(-c3ccccc3)cn2n1 [Example 43.1, isopropyl-(6-phenyl-5-{4-[3-(5-pyridin-2-yl-1H-[1,2,4]triazol-3-yl)-azetidin-1-ylmethyl]-phenyl}-[1,2,4]triazolo[1,5-a]pyrimidin-2-yl)-amine] | 11 nM | 22 nM |
| COC(=O)c1cnn2cc(-c3c(F)cccc3F)c(-c3ccc(CN4CCC(c5n[nH]c(-c6cccc(C)n6)n5)CC4)cc3)nc12 [Example 48.0, 6-(2,6-difluorophenyl)-5-(4-{4-[5-(6-methylpyridine-2-yl)-1H-[1,2,4]triazole-3-yl]-piperidine-1-ylmethyl}-phenyl)-pyrazolo[1,5-a]pyrimidine-3-carboxylic acid methyl ester] | 82 nM | 7 nM |
| COC(=O)c1cnn2cc(-c3c(F)cccc3F)c(-c3ccc(CN4CCC(c5n[nH]c(-c6ccccn6)n5)CC4)cc3)nc12 [Example 48.1, 6-(2,6-difluorophenyl)-5-(4-{4-[5-(pyridine-2-yl)-1H-[1,2,4]triazole-3-yl]-piperidine-1-ylmethyl}-phenyl)-pyrazolo[1,5-a]pyrimidine-3-carboxylic acid methyl ester] | 203 nM | 5 nM |
| Cc1cccc(-c2nc(C3CCN(Cc4ccc(-c5nc6nc(C)nn6cc5-c5cccc(F)c5)cc4)CC3)n[nH]2)n1 [Example 49.0, 6-(3-fluorophenyl)-2-methyl-5-(4-{4-[5-(6-methylpyridine-2-yl)-1H-[1,2,4]triazole-3-yl]-piperidine-1-ylmethyl}-phenyl)-[1,2,4]triazolo[1,5-a]pyrimidine] | 37 nM | 13 nM |
| Cc1nc2nc(-c3ccc(CN4CCC(c5n[nH]c(-c6ccccn6)n5)CC4)cc3)c(-c3cccc(F)c3)cn2n1 [Example 49.1, 6-(3-fluorophenyl)-2-methyl-5-{4-[4-(5-pyridine-2-yl)-1H-[1,2,4]triazole-3-yl)-piperidine-1-ylmethyl]-phenyl]-[1,2,4]triazolo[1,5-a]pyrimidine formiate] | 129 nM | 28 nM |
| Cc1nc2nc(-c3ccc(CN4CCC(c5n[nH]c(-c6cc(Cl)ccn6)n5)CC4)cc3)c(-c3ccc(F)cc3F)cn2n1 [Example 50.0, 5-(4-{4-[5-(4-chloropyridine-2-yl)-1H-[1,2,4]triazole-3-yl]-piperidine-1-ylmethyl}-phenyl) 6-(2,4-difluorophenyl)-2-methyl-[1,2,4]triazolo[1,5-a]pyrimidine] | 97 nM | 22 nM |
| Cc1cccc(-c2nc(C3CCN(Cc4ccc(-c5nc6nc(C)nn6cc5-c5ccc(F)cc5F)cc4)CC3)n[nH]2)n1 [Example 50.1, 6-(2,4-difluorophenyl)-2-methyl-5-(4-{4-[5-(6-methylpyridine-2-yl)-1H-[1,2,4]triazole-3-yl]-piperidine-1-ylmethyl}-phenyl)-[1,2,4]triazolo[1,5-a]pyrimidine] | 108 nM | 62 nM |
| Cc1nc2nc(-c3ccc(CN4CCC(c5n[nH]c(-c6cnccn6)n5)CC4)cc3)c(-c3ccc(F)cc3F)cn2n1 [Example 50.2, 6-(2,4-difluorophenyl)-2-methyl-5-[4-{4-(5-pyrazine-2-yl-1H-[1,2,4]triazole-3-yl)-piperidine-1-ylmethyl]-phenyl}-[1,2,4]triazolo[1,5-a]pyrimidine] | 1100 nM | 355 nM |
| Cc1cccc(-c2nc(C3CCN(Cc4ccc(-c5nc6nc(C7CC7)nn6cc5-c5ccc(F)cc5)cc4)CC3)n[nH]2)n1 [Example 51.0, 2-cyclopropyl-6-(4-fluorophenyl)-5-(4-{4-[5-(6-methylpyridine-2-yl)-1H-[1,2,4]triazole-3-yl]-piperidine-1-ylmethyl}-phenyl)-[1,2,4]triazolo[1,5-a]pyrimidine] | 46 nM | 41 nM |
| Fc1ccc(-c2cn3nc(C4CC4)nc3nc2-c2ccc(CN3CCC(c4n[nH]c(-c5ccccn5)n4)CC3)cc2)cc1 [Example 51.1, 2-cyclopropyl-6-(4-fluorophenyl)-5-{4-[4-(5-pyridine-2-yl-1H-[1,2,4]triazole-3-yl)-piperidine-1-ylmethyl]-phenyl}-[1,2,4]triazolo[1,5-a]pyrimidine] | 69 nM | 32 nM |
| Fc1ccc(-c2cn3nc(C4CC4)nc3nc2-c2ccc(CN3CCC(c4n[nH]c(-c5cc(Cl)ccn5)n4)CC3)cc2)cc1 [Example 51.2, 5-(4-{4-[5-(4-chloropyridine-2-yl)-1H-[1,2,4]triazole-3-yl]-piperidine-1-ylmethyl}-phenyl)-2-cyclopropyl-6-(4-fluorophenyl)-[1,2,4]triazolo[1,5-a]pyrimidine] | 165 nM | 56 nM |
| Cc1cccc(-c2nc(C3CCN(Cc4ccc(-c5nc6nccn6cc5-c5ccc(F)cc5)cc4)CC3)n[nH]2)n1 [Example 52.0, 6-(4-fluorophenyl)-7-(4-{4-[5-(6-methylpyridine-2-yl)-1H-[1,2,4]triazole-3-yl]-piperidine-1-ylmethyl}-phenyl)-imidazo[1,2-a]pyrimidine formiate] | 17 nM | 9 nM |
| Fc1ccc(-c2cn3ccnc3nc2-c2ccc(CN3CCC(c4n[nH]c(-c5ccccn5)n4)CC3)cc2)cc1 [Example 52.1, 6-(4-fluorophenyl)-7-{4-[4-(5-pyridine-2-yl)-1H-[1,2,4]triazole-3-yl)-piperidine-1-ylmethyl)-phenyl}-imidazo[1,2-a]pyrimidine formiate] | 32 nM | 8 nM |
